# Test results as given in paper PMC11189555, “Aryl amino acetamides prevent Plasmodium falciparum ring development via targeting the lipid-transfer protein PfSTART1” (Nature Communications, 2024).
# Values joined by “and” are separate entries in the source; they are usually repeats but may differ in a detail not shown here. Identical values can stand only once. Like-named read-outs stand apart in the source and are kept apart here.
# How the values were obtained:
# [1] = system: M-833 resistant parasite populations (PopC, PopD, PopE); assay: Growth inhibition of M-833 resistant populations (LDH); format: cell-based, Plasmodium falciparum
# Procedure: After three cycles of drug treatment, three parasite populations were identified as less susceptible to the compound and their growth in serially diluted M-833 after 72 h was measured by lactate dehydrogenase (LDH) activity assays. […] The two most resistant populations (PopD and PopE) were further cloned out by limiting dilution. […] To identify the target of M-833, genomic DNA was extracted from the clonal lines of PopD and PopE and subjected to whole genome sequencing using MinION technology and compared to clonal 3D7 parental parasites. This identified 14 non-synonymous single nucleotide polymorphisms (SNP) across nine different genes when compared to the 3D7 parental strain (Supplementary Data 1). The two genes that had SNPs present across all resistant clones were the P. falciparum liver stage antigen 1 gene (PF3D7_1036400) and P. falciparum stAR-related lipid transfer protein (PF3D7_0104200, PFA0210c; pfstart1). The former is not expressed in the blood stage[19]–[21] and comprises a large central repeat region which is problematic for variant calling. […] Collectively, all the identified mutations (N309K, I224F, N330K) were found within the central conserved START domain and predicted to face the lipid-binding pocket (Fig. 1C).
# The drug was then removed, and parasites were allowed to recover. Another cycle of drug treatment (3 μM M-833) was then resumed. The resistant lines were cloned out by limiting dilution (diluting the culture into a 96-well plate to achieve an average of ~0.3 parasites per well), prior to growth inhibition assays and genomic DNA (gDNA) extraction (DNeasy Blood and Tissue kit (Qiagen)[18].
# Parasite growth assays with inhibitory compounds were performed as per[11] and are fully described in the Supplementary Information. […]
# (§1) and compound 4. Note that M-833 was first purchased from MolPort (MolPort -002-267-916) then made in-house at WEHI: the differences observed in EC50s across experiments are attributed to the different batches of M -833. For some experiments, 0, 0.25 or 2.5 mM of glucosamine (GlcN) was also added. Experiments were set up in technical duplicates or triplicates. Following a freeze -thaw cycle, lactate dehydrogenase (LDH) activity was assessed as an indicator of parasite growt h 5. 30 μL of parasite culture was incubated for 30 min in the dark with 75 μL Malstat mixture (0.1 M Tris pH 9.0, 20 g/L lactic acid, pH 7.5, 0.2% Triton-X100, 0.5 g/L acetylpyridine adenine dinucleotide (APAD, Sigma), 200 μg/mL nitroblue tetrazolium (NBT; Sigma), 1 μg/mL phenozine ethosulfate (PES; Sigma)). Absorbance was then measured at 650 nm, transformed using the formula below, plotted against the logarithm of the concentrations, and a non-linear regression (log(inhibitor) vs. response, variable slope) was calculated using GraphPad Prism to assess the half-inhibitory […]
# (§2) Growth inhibition % = (1 − average(sample)− average(uRBC)) ∗ 100 […]
# (§3) The DMSO samples were also used to assess growth of parasite in the presence of 0.25 and 2.5 mM GlcN (normalised by DMSO in 0 mM GlcN). […]
# [2] = system: CR-WT parasites; assay: Growth inhibition assay (72 h, LDH activity); format: cell-based, Plasmodium falciparum; settings: for EC50: n = 3
# Procedure: Parasite growth assays with inhibitory compounds were performed as per[11] and are fully described in the Supplementary Information.
# Molecular biology and transfection of P. falciparum: CRISPR method.
# The full 5’ homology region of pfstart1 (either WT, N309K or N330K) was amplified from pPfSTART1-HA-2A-Neo-glmS with the same 5’ BglII primer and a new 3’ primer that replaced with PstI with SpeI and introduced a stop codon. The PCR product was then digested with BglII and SpeI and inserted into similarly digested p1.2 parasite vector2. The p1.2 vector had previously been inserted with a homology region amplified from the 3’ end of the pfstart1 gene (3’HB) to form a second homology block for double recombination. The primers used to amplify 3’HB are listed primers listed in […]
# 60 μg of p1.2-PfSTART1(WT/N309K/N330K) plasmid was linearised with KasI, precipitated in 3 M sodium acetate and ethanol (70% final concentration) overnight at -20°C. The DNA pellet was washed in cold 70% ethanol and resuspended in cytomix 3.
# 50 μ M of crRNA ( Table S 2) and 50 μM of tracRNA (Integrated DNA Technologies) were allowed to form a duplex (5 min at 95°C), and Cas9 enzyme (Integrated DNA Technologies) was added, and incubated for 20 min at room temperature 4. This crRNA -tracRNA -Cas9 mix was added to each DNA preparation and transfected to 3D7 ring parasites using the Bio -Rad Gene Pulser at 310 V and 950 μF.
# Parasites containing the transfected DNA were selected using 2.5 nM WR99210 (Jacobus). Parasites lines were cloned using limiting dilution. Correct integration was tested by PCR (using primer START_5’UTR.F and START_Int.R1 , Table S 2), and sequencing was done using the primers START_3F and START_Int.R2 (Table S 2).
# Growth inhibition assays. Synchronised ring-stage parasites (0.3-0.6% parasitemia, 2% haematocrit) were grown for 72 h in a serial-dilution of the compound under […]
# as §1, §2, §3
compound,measurement,setting,value
Cc1cc(Cl)c(S(=O)(=O)N2CCCC2)cc1OCC(=O)NC1CCCCC1 [M-833],Growth (Abs) Normalised to DMSO,"[1]; Population C, M-833 0.0390625 uM",99.9117
same,Growth (Abs) Normalised to DMSO,"[1]; Population C, M-833 0.078125 uM",102.105
same,Growth (Abs) Normalised to DMSO,"[1]; Population C, M-833 0.15625 uM",99.9558
same,Growth (Abs) Normalised to DMSO,"[1]; Population C, M-833 0.3125 uM",98.7636
same,Growth (Abs) Normalised to DMSO,"[1]; Population C, M-833 0.625 uM",92.6626
same,Growth (Abs) Normalised to DMSO,"[1]; Population C, M-833 1.25 uM",74.9632
same,Growth (Abs) Normalised to DMSO,"[1]; Population C, M-833 2.5 uM",42.7878
same,Growth (Abs) Normalised to DMSO,"[1]; Population C, M-833 5 uM",8.5443
same,Growth (Abs) Normalised to DMSO,"[1]; Population C, M-833 10 uM",1.435
same,Growth (Abs) Normalised to DMSO,"[1]; Population D, M-833 0.0390625 uM",100.282
same,Growth (Abs) Normalised to DMSO,"[1]; Population D, M-833 0.078125 uM",101.574
same,Growth (Abs) Normalised to DMSO,"[1]; Population D, M-833 0.15625 uM",100.622
same,Growth (Abs) Normalised to DMSO,"[1]; Population D, M-833 0.3125 uM",100.758
same,Growth (Abs) Normalised to DMSO,"[1]; Population D, M-833 0.625 uM",96.1318
same,Growth (Abs) Normalised to DMSO,"[1]; Population D, M-833 1.25 uM",94.9752
same,Growth (Abs) Normalised to DMSO,"[1]; Population D, M-833 2.5 uM",84.3814
same,Growth (Abs) Normalised to DMSO,"[1]; Population D, M-833 5 uM",63.806
same,Growth (Abs) Normalised to DMSO,"[1]; Population D, M-833 10 uM",31.8884
same,Growth (Abs) Normalised to DMSO,"[1]; Population E, M-833 0.0390625 uM",101.958
same,Growth (Abs) Normalised to DMSO,"[1]; Population E, M-833 0.078125 uM",104.075
same,Growth (Abs) Normalised to DMSO,"[1]; Population E, M-833 0.15625 uM",104.451
same,Growth (Abs) Normalised to DMSO,"[1]; Population E, M-833 0.3125 uM",103.313
same,Growth (Abs) Normalised to DMSO,"[1]; Population E, M-833 0.625 uM",104.846
same,Growth (Abs) Normalised to DMSO,"[1]; Population E, M-833 1.25 uM",106.755
same,Growth (Abs) Normalised to DMSO,"[1]; Population E, M-833 2.5 uM",98.4077
same,Growth (Abs) Normalised to DMSO,"[1]; Population E, M-833 5 uM",90.3966
same,Growth (Abs) Normalised to DMSO,"[1]; Population E, M-833 10 uM",68.0744
same,increase in EC50 compared to 3D7 parasites,"[1]; cloned PopD and PopE lines, Fig 1B",17 fold
same,"Growth inhibition assay, NORMALISED","[2]; CR-WT, 0 mM GlcN, conc 41.1523 nM",25.7439 and 21.0208
same,"Growth inhibition assay, NORMALISED","[2]; CR-WT, 0 mM GlcN, conc 123.457 nM",61.3173 and 56.525
same,"Growth inhibition assay, NORMALISED","[2]; CR-WT, 0 mM GlcN, conc 370.37 nM",82.8843
same,"Growth inhibition assay, NORMALISED","[2]; CR-WT, 0 mM GlcN, conc 1111.11 nM",89.7059
same,"Growth inhibition assay, NORMALISED","[2]; CR-WT, 0 mM GlcN, conc 3333.33 nM",91.3866
same,"Growth inhibition assay, NORMALISED","[2]; CR-WT, 0 mM GlcN, conc 10000 nM",91.9797
same,"NORMALISED (growth inhibition, LDH absorbance vs DMSO and uRBC)","[2]; CR-WT, 0.25 mM GlcN, M833 dilution point 1 of 10 (starting concentration 10 uM)",91.6378 and 97.2065 and 92.208
same,"NORMALISED (growth inhibition, LDH absorbance vs DMSO and uRBC)","[2]; CR-WT, 0.25 mM GlcN, M833 dilution point 2 of 10 from 10 uM start",88.8272 and 91.5474 and 95.4251
same,"NORMALISED (growth inhibition, LDH absorbance vs DMSO and uRBC)","[2]; CR-WT, 0.25 mM GlcN, M833 dilution point 3 of 10 from 10 uM start",89.2783 and 89.1988 and 95.5364
same,"NORMALISED (growth inhibition, LDH absorbance vs DMSO and uRBC)","[2]; CR-WT, 0.25 mM GlcN, M833 dilution point 4 of 10 from 10 uM start",88.272 and 87.9755 and 93.8563
same,"NORMALISED (growth inhibition, LDH absorbance vs DMSO and uRBC)","[2]; CR-WT, 0.25 mM GlcN, M833 dilution point 5 of 10 from 10 uM start",75.3643 and 67.6575 and 81.1437
same,"NORMALISED (growth inhibition, LDH absorbance vs DMSO and uRBC)","[2]; CR-WT, 0.25 mM GlcN, M833 dilution point 6 of 10 from 10 uM start",45.0382 and 30.6544 and 52.9049
same,"NORMALISED (growth inhibition, LDH absorbance vs DMSO and uRBC)","[2]; CR-WT, 2.5 mM GlcN, M833 dilution point 1 of 10 (starting concentration 10 uM)",89.8305 and 92.5684 and 90.1213
same,"NORMALISED (growth inhibition, LDH absorbance vs DMSO and uRBC)","[2]; CR-WT, 2.5 mM GlcN, M833 dilution point 2 of 10 from 10 uM start",86.1896 and 88.6745 and 91.3765
same,"NORMALISED (growth inhibition, LDH absorbance vs DMSO and uRBC)","[2]; CR-WT, 2.5 mM GlcN, M833 dilution point 3 of 10 from 10 uM start",89.5794 and 86.621 and 91.7037
same,"NORMALISED (growth inhibition, LDH absorbance vs DMSO and uRBC)","[2]; CR-WT, 2.5 mM GlcN, M833 dilution point 4 of 10 from 10 uM start",86.2524 and 82.3118 and 91.2012
same,"NORMALISED (growth inhibition, LDH absorbance vs DMSO and uRBC)","[2]; CR-WT, 2.5 mM GlcN, M833 dilution point 5 of 10 from 10 uM start",84.1808 and 81.8139 and 88.9226
same,"NORMALISED (growth inhibition, LDH absorbance vs DMSO and uRBC)","[2]; CR-WT, 2.5 mM GlcN, M833 dilution point 6 of 10 from 10 uM start",79.5355 and 74.3155 and 81.4326
same,"NORMALISED (growth inhibition, LDH absorbance vs DMSO and uRBC)","[2]; CR-WT, 2.5 mM GlcN, M833 dilution point 7 of 10 from 10 uM start",64.0929 and 56.4406 and 58.0509
same,"NORMALISED (growth inhibition, LDH absorbance vs DMSO and uRBC)","[2]; CR-WT, 2.5 mM GlcN, M833 dilution point 8 of 10 from 10 uM start",44.6955 and 44.5084 and 37.5789
same,"NORMALISED (growth inhibition, LDH absorbance vs DMSO and uRBC)","[2]; CR-WT, 2.5 mM GlcN, M833 dilution point 9 of 10 from 10 uM start",25.0175 and 29.9435 and 28.2047
same,"NORMALISED (growth inhibition, LDH absorbance vs DMSO and uRBC)","[2]; CR-WT, 2.5 mM GlcN, M833 dilution point 10 of 10 from 10 uM start",14.8750 and 11.4878 and 17.8749
same,EC50,"[2]; Plasmodium falciparum, 72 h, Fig 2D, CR-WT, 72 h, read-out: EC50 (95% confidence interval)",51.2 nM
same,inhibition at 0.37037 µM,"[2]; Plasmodium falciparum, CR-WT, 0 mM GlcN, conc 370.37 nM, read-out: Growth inhibition assay, NORMALISED",88.3%
same,inhibition at 1.11111 µM,"[2]; Plasmodium falciparum, CR-WT, 0 mM GlcN, conc 1111.11 nM, read-out: Growth inhibition assay, NORMALISED",91.9%
same,inhibition at 3.33333 µM,"[2]; Plasmodium falciparum, CR-WT, 0 mM GlcN, conc 3333.33 nM, read-out: Growth inhibition assay, NORMALISED",91.6%
same,inhibition at 10 µM,"[2]; Plasmodium falciparum, CR-WT, 0 mM GlcN, conc 10000 nM, read-out: Growth inhibition assay, NORMALISED",93.5%
same,EC50,"[2]; Plasmodium falciparum, read-out: EC50 M-833 (95% confidence interval), Fig 3F, CR-WT, 0.25 mM GlcN",39.6 nM
same,EC50,"[2]; Plasmodium falciparum, read-out: EC50 M-833 (95% confidence interval), Fig 3F, CR-WT, 2.5 mM GlcN",6.58 nM
same,fold reduction of EC50 on addition of 2.5 mM GlcN,[2]; {},7.8 fold
